We go through 1 compound from paper PMC10635799, “Analogs of FTY720 inhibit TRPM7 but not S1PRs and exert multimodal anti-inflammatory effects” (The Journal of General Physiology, 2023).

Each structure is given as a SMILES string.

The test system of one assay is BV-2 microglia. Kind of assay: LPS-induced cytokine expression in BV-2 microglia (qRT-PCR). The format is cell-based, mouse. The following applies: 10 µM pretreatment, LPS 1 µg/ml for 3 h. As to the method: RAW 264.7 macrophages or BMDMs were seeded at a density of 250,000 cells per well into a 12-well tissue culture plate in 1 ml of media and left to incubate overnight. The indicated drug or vehicle control was added to each well, and the plate was agitated and left to incubate for 10 min. The cells were then treated with LPS (1 μg/ml) or an equivalent volume of PBS, agitated, and left to incubate for 3 h. Cells were washed with PBS and then RNA isolation was performed using RNeasy Plus Micro Kit (74134; Qiagen). cDNA was produced using GoScript Reverse Transcriptase ([…]; Promega) and a quantitative PCR was performed using SensiFast SYBR (98020; Bioline) and Bio-Rad CFX Connect thermocycler. Each datum represents an individual, biological replicate that is the mean of duplicate technical replicates. Fold-changes are all reported relative to untreated controls for each experiment and were calculated using the ΔΔCt method, with β2-microglobulin used as the housekeeping gene for each sample. The experiment was performed similarly with BV-2 microglia and alveolar macrophages, except that cells were plated at a density of 100,000 cells per well into a 24-well tissue culture plate with 1 ml of media per well.

In another assay the test system is BMDMs. Nature of the assay: LPS-induced inflammation assay in WT and TRPM7 KO BMDMs (qRT-PCR). The class given is cell-based, mice. On the procedure: All cells were cultured at 37°C with 5% CO2. HEK 293T cells (CRL-3216; ATCC), HeLa cells (CCL-2; ATCC), RAW 264.7 macrophages (TIB-71; ATCC), and BV-2 microglial cells (ABC-TC212S; AcceGen Biotech) were cultured in DMEM (11995065; Gibco) with 10% fetal bovine serum (FBS; Avantor Seradigm Premium Grade Fetal Bovine Serum 97068-085). FBS was heat-inactivated prior to use at 56°C for 30 min. BMDMs were isolated and cultured as previously described ([Schappe et al., 2018]) and differentiated into mature macrophages over 7 d through culture in BMDM media (RPMI 1640, 10% FBS, and 20% L-929 culture supernatant; Gibco).
RAW 264.7 macrophages or BMDMs were seeded at a density of 250,000 cells per well into a 12-well tissue culture plate in 1 ml of media and left to incubate overnight. The indicated drug or vehicle control was added to each well, and the plate was agitated and left to incubate for 10 min. The cells were then treated with LPS (1 µg/ml) or an equivalent volume of PBS, agitated, and left to incubate for 3 h. Cells were washed with PBS and then RNA isolation was performed using RNeasy Plus Micro Kit (74134; Qiagen). cDNA was produced using GoScript Reverse Transcriptase (A5004; Promega) and a quantitative PCR was performed using SensiFast SYBR (98020; Bioline) and Bio-Rad CFX Connect thermocycler. Each datum represents an individual, biological replicate that is the mean of duplicate technical replicates. Fold-changes are all reported relative to untreated controls for each experiment and were calculated using the ∆∆Ct method, with β2-microglobulin used as the housekeeping gene for each sample. The experiment was performed similarly with BV-2 microglia and alveolar macrophages, except that cells were plated at a density of 100,000 cells per well into a 24-well tissue culture plate with 1 ml of media per well.
(In general: Quantitative PCR measures a nucleic acid by following its amplification.)

Another assay concerns alveolar macrophages. Nature of the assay: LPS-induced cytokine expression in primary alveolar macrophages (qRT-PCR). The following applies: 10 µM pretreatment, LPS 1 µg/ml for 3 h. The class given is cell-based, mouse. As to the method: Alveolar macrophages were isolated and cultured from wildtype (WT) C57BL/6 mice (Strain #000664; Jackson Laboratory) using an established protocol ([Nayak et al., 2018]). […] Using a 5-ml syringe filled with 3 ml of bronchoalveolar lavage buffer (“BAL buffer”: Ca^2+- and Mg^2+-free PBS + 1 mM EDTA), the lungs were first filled with ∼2 ml of BAL buffer, then flushed five times in a cycle involving the installation and removal of 1 ml of buffer. The collected BAL fluid was pooled and the cyclical perfusion step was repeated with fresh buffer until a total of ∼10 ml of BAL fluid was collected. BAL fluid with gross evidence of blood contamination was discarded. A pellet was obtained through centrifugation at 500 × g for 5 min, and contaminating red blood cells were lysed by resuspending cells for 5 min in 5 ml of ice-cold ACK Lysis buffer (A1049201; Gibco). The cells were then pelleted at 500 × g for 5 min, resuspended in alveolar macrophage culture media (DMEM supplemented with 10% FBS, 20% L-929 culture supernatant, 1 mM sodium pyruvate, 10 mM HEPES, and 1× penicillin/streptomycin), and plated onto untreated tissue culture dishes for 24 h. The media was exchanged prior to use to remove unattached cells.
RAW 264.7 macrophages or BMDMs were seeded at a density of 250,000 cells per well into a 12-well tissue culture plate in 1 ml of media and left to incubate overnight. The indicated drug or vehicle control was added to each well, and the plate was agitated and left to incubate for 10 min. […] Cells were washed with PBS and then RNA isolation was performed using RNeasy Plus Micro Kit (74134; Qiagen). cDNA was produced using GoScript Reverse Transcriptase (A5004; Promega) and a quantitative PCR was performed using SensiFast SYBR (98020; Bioline) and Bio-Rad CFX Connect thermocycler. […] Fold-changes are all reported relative to untreated controls for each experiment and were calculated using the ∆∆Ct method, with β2-microglobulin used as the housekeeping gene for each sample. […]

`CCCCCCCCc1ccc([C@@H]2CC[C@@](N)(CO)C2)cc1` [VPC01091.4, ((1S,3R)-1-amino-3-(4-octylphenyl)cyclopentyl)methanol]: the “LPS-induced inflammatory cytokine expression” value in the assay with BV-2 microglia was “direct anti-inflammatory effects”. Also, in the assay with BMDMs (10 µM VPC4, 10 µM AAL-149, 5 µM FTY720, 30 μM NS8593), the “LPS-induced IL-1β expression in TRPM7 KO BMDMs” value was “able to suppress”. Further, the “LPS-induced IL-6 expression in Trpm7 KO BMDMs” value in the assay with BMDMs (10 µM, effect on top of genetic deletion) is on record as “additive effect”. Moreover, in the assay on alveolar macrophages, the “LPS-induced CCL4 expression” value is “significantly suppressed”, the “LPS-induced IL-1β expression” value is recorded as “significantly suppressed” and the “LPS-induced TNFα expression” value was “significantly suppressed”.
